Experimental data: US9266908B2, “Inhibitors of arginase and their therapeutic applications” (MARS, INCORPORATED, priority 2011, dated 2016)

Legend:
arginase II (ARG II) = target: T1, arginase II (ARG II) (Homo sapiens, UniProt P78540); experiment: Inhibition of arginase II, spectrophotometric urea assay at 530 nm
T1 sequence (P78540 23-354): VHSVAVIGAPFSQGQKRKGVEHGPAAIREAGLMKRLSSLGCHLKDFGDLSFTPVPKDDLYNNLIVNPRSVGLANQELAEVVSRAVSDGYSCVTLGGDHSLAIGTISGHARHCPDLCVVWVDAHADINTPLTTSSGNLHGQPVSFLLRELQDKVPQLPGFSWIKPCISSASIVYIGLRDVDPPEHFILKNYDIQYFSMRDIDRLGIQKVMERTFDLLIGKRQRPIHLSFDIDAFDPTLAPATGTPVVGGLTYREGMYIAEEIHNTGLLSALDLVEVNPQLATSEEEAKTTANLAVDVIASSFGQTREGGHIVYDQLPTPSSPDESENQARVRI
Description: (§1) Inhibition of arginase I (ARG I) and arginase II (ARG II) by the inventive compounds is followed spectrophotometrically at 530 nm. […] Solutions of arginase I and II are prepared in 100 mM sodium phosphate buffer, pH 7.4 containing 1 mg/ml of OVA to give an arginase stock solution at a final concentration of 100 ng/ml.
(§2) To each well of a 96-well microtiter plate is add 40 μl of enzyme, 10 μl of an inventive compound and 10 μl of enzyme substrate (L-arginine+ manganese sulfate). For wells that are used as positive controls, only the enzyme and its substrate are added, while wells used as negative controls contain only manganese sulfate.
(§3) After incubating the microtiter plate at 37° C. for 60 minutes, 150 μl of a urea reagent obtained by combining equal proportions (1:1) of reagents A and B is added to each well of the microtiter plate to stop the reaction. The urea reagent is made just before use by combining Reagent A (10 mM o-phthaldialdehyde, and 0.4% polyoxyethylene (23) lauryl ether (w/v) in 1.8 M sulfuric acid) with Reagent B (1.3 mM primaquine diphosphate, 0.4% polyoxyethylene (23) lauryl ether (w/v), 130 mM boric acid in 3.6 M sulfuric acid). After quenching the reaction mixture, the microtiter plate is allowed to stand for an additional 10 minutes at room temperature to allow color development. […] The normalized OD is then used to generate a dose-response curve by plotting the normalized OD values against log [concentration] and using regression analysis to compute the IC50 values.

human arginase I (ARG I) = target: T2, human arginase I (ARG I) (Homo sapiens, UniProt P05089); experiment: Inhibition of arginase I, spectrophotometric urea assay at 530 nm
T2 sequence (P05089 1-322): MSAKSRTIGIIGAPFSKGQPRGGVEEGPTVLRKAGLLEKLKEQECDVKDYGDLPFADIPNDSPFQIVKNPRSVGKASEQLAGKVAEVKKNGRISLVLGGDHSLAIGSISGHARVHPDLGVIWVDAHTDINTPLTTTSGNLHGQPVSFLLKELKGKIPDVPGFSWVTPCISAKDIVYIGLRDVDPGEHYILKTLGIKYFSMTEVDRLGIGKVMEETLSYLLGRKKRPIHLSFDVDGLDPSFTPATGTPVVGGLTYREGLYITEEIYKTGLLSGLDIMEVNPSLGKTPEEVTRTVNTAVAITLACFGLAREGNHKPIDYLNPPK
Description: as §1, §2, §3

human-Arginase-1 = target: T3, human-Arginase-1 (Homo sapiens, UniProt P05089); experiment: Urea production in CHOK cells stably transfected with human-Arginase-1; assay type: cell-based; details: IC50 class, 5 mM arginine, 24 hours, read-out: CHOK Cell
T3 construct: expressed in transfected cells; host or cells: CHOK cells
T3 sequence (P05089 1-322): T2 sequence (P05089 1-322)
Description: Table 3 also provides CHOK cell based IC50 values for illustrative arginase inhibitors. IC50 values were determined by measuring the production of urea in CHOK cells stably transfected with human-Arginase-1.
Briefly, CHOK cells were stably transfected with human-arginase-1. To determiner the IC50 values for compounds in accordance with the present invention, parental CHOK cells and arginase-1 stably transfected cells were plated in a 96 well plate. Cells were plated using 200 μl of complete growth medium and incubated overnight at 37° C.
Media from each of the wells containing cells was first removed and growth media supplemented with arginine at a concentration of 5 mM was added to each well. The test compounds were dissolved in PBS buffer to the desired concentration and added to appropriate wells. The plate was then incubated at 37° C. for 24 hours. After 24 hours the plates were spun down at 3000 RPM for 5 min and 50 μl of the media were transferred to a new plate.
An aqueous solution of o-phthaldehyde, Brij, sulfuric acid, primaquine diphosphate and boric acid was added to each well and the plate was incubated for 10-15 minutes. The urea concentration in each well was determined by measuring the optical density at 520-530 nanometers using a standard curve. The IC50 values were calculated by measuring urea production at various concentrations of the inventive arginase inhibitors after subtracting the value related to the concentration of urea in control wells.

SMILES | IC50 (arginase II (ARG II)) [nM] | IC50 (human arginase I (ARG I)) [nM] | IC50 (human-Arginase-1) [nM]
Cc1ccc(F)c(-c2ccc(CN[C@H]3C[C@@H](C(N)(CCCCB(O)O)C(=O)O)C3)cc2F)c1 (mixture of isomers) [Example 52, (S)-2-amino-6-borono-2-((1s,3R)-3-((2,2′-difluoro-5′-methylbiphenyl-4-yl)methylamino)cyclobutyl)hexanoic acid] | 0.1 to 25 | 0.1 to 25 | 1000 to 25000
NC(CCCCB(O)O)(C(=O)O)[C@H]1C[C@@H](NCc2ccc(-c3ccc(F)cc3)c(F)c2)C1 (mixture of isomers) [Example 53, (S)-2-amino-6-borono-2-((1s,3R)-3-((2,4′-difluorobiphenyl-4-yl)methylamino)cyclobutyl)hexanoic acid] | 26 to 100 | 0.1 to 25 | 26000 to 100000
NC(CCCCB(O)O)(C(=O)O)[C@H]1C[C@@H](NCc2ccc(-c3ccccc3F)c(F)c2)C1 (mixture of isomers) [Example 54, (S)-2-amino-6-borono-2-((1s,3R)-3-((2,2′-difluorobiphenyl-4-yl)methylamino)cyclobutyl)hexanoic acid] | 26 to 100 | 26 to 100 | 26000 to 100000
NC(CCCCB(O)O)(C(=O)O)[C@H]1C[C@@H](NCc2ccc(-c3ccc(F)cc3F)c(F)c2)C1 (mixture of isomers) [Example 55, (S)-2-amino-6-borono-2-((1s,3R)-3-((2,2′,4′-trifluorobiphenyl-4-yl)methylamino)cyclobutyl)hexanoic acid] | 26 to 100 | 26 to 100 | 26000 to 100000
NC(CCCCB(O)O)(C(=O)O)[C@H]1C[C@@H](NCc2ccc(Cc3ccccc3)cc2)C1 (mixture of isomers) [Example 57, (S)-2-amino-2-((1s,3R)-3-(4-benzylbenzylamino)cyclobutyl)-6-boronohexanoic acid] | 26 to 100 | 26 to 100 | 26000 to 100000
NC(CCCCB(O)O)(C(=O)O)[C@H]1C[C@@H](NCc2c(F)cc(-c3ccc(Cl)cc3)cc2F)C1 (mixture of isomers) [Example 58, (S)-2-amino-6-borono-2-((1s,3R)-3-((4′-chloro-3,5-difluorobiphenyl-4-yl)methylamino)cyclobutyl)hexanoic acid] | 26 to 100 | 26 to 100 | 1000 to 25000
NC(CCCCB(O)O)(C(=O)O)[C@H]1C[C@@H](NCC2CCN(c3ccc(C(F)(F)F)cc3)CC2)C1 (mixture of isomers) [Example 60, (S)-2-amino-6-borono-2-((1s,3R)-3-((1-(4-(trifluoromethyl)phenyl)piperidin-4-yl)methylamino)cyclobutyl)hexanoic acid] | 26 to 100 | 0.1 to 25 | 26000 to 100000
NC(CCCCB(O)O)(C(=O)O)[C@H]1CC[C@H](NCc2ccc(-c3ccccc3)cc2)C1 (stereo in doubt) [Example 43] | 26 to 100 | 26 to 100 | 26000 to 100000
NC(CCCCB(O)O)(C(=O)O)[C@H]1C[C@@H](NC2Cc3ccccc3C2)C1 (stereo partly drawn) [Example 5, (S)-2-amino-6-borono-2-((1s,3R)-3-(2,3-dihydro-1H-inden-2-ylamino)cyclobutyl)hexanoic acid] | 26 to 100 | 0.1 to 25 | 1000 to 25000
CC(C)(C)c1ccc(CN[C@H]2C[C@@H](C(N)(CCCCB(O)O)C(=O)O)C2)cc1 (stereo partly drawn) [Example 6, (S)-2-amino-6-borono-2-((1s,3R)-3-(4-tert-butylbenzylamino)cyclobutyl)hexanoic acid] | 26 to 100 | 26 to 100 | 26000 to 100000
NC(CCCCB(O)O)(C(=O)O)[C@H]1C[C@@H](NCc2cccc(-c3ccc(C(F)(F)F)cc3)c2)C1 (stereo partly drawn) [Example 8, (S)-2-amino-6-borono-2-((1s,3R)-3-((4′-(trifluoromethyl)biphenyl-3-yl)methylamino)cyclobutyl)hexanoic acid] | 0.1 to 25 | 0.1 to 25 | 1000 to 25000
NC(CCCCB(O)O)(C(=O)O)[C@H]1C[C@@H](NCc2cccc(-c3ccc(Cl)cc3)c2)C1 (stereo partly drawn) [Example 9, (S)-2-amino-6-borono-2-((1s,3R)-3-((4′-chlorobiphenyl-3-yl)methylamino)cyclobutyl)hexanoic acid] | 0.1 to 25 | 0.1 to 25 | 26000 to 100000
NC(CCCCB(O)O)(C(=O)O)[C@H]1C[C@@H](NCc2ccc(F)c3ccccc23)C1 (stereo partly drawn) [Example 10, (S)-2-amino-6-borono-2-((1s,3R)-3-((4-fluoronaphthalen-1-yl)methylamino)cyclobutyl)hexanoic acid] | 0.1 to 25 | 0.1 to 25 | 1000 to 25000
NC(CCCCB(O)O)(C(=O)O)[C@H]1C[C@@H](NCc2cccc3c(F)cccc23)C1 (stereo partly drawn) [Example 11, (S)-2-amino-6-borono-2-((1s,3R)-3-((5-fluoronaphthalen-1-yl)methylamino)cyclobutyl)hexanoic acid] | 26 to 100 | 0.1 to 25 | 1000 to 25000
NC(CCCCB(O)O)(C(=O)O)[C@H]1C[C@@H](NCc2c3ccccc3cc3ccccc23)C1 (stereo partly drawn) [Example 12, (S)-2-amino-2-((1s,3R)-3-(anthracen-9-ylmethylamino)cyclobutyl)-6-boronohexanoic acid] | 0.1 to 25 | 26 to 100 | 26000 to 100000
NC(CCCCB(O)O)(C(=O)O)[C@H]1C[C@@H](NCc2ccccc2N2CCOCC2)C1 (stereo partly drawn) [Example 13, (S)-2-amino-6-borono-2-((1s,3R)-3-(2-morpholinobenzylamino)cyclobutyl)hexanoic acid] | 26 to 100 | 26 to 100 | 26000 to 100000
NC(CCCCB(O)O)(C(=O)O)[C@H]1C[C@@H](NCc2ccc3c(c2)CCO3)C1 (stereo partly drawn) [Example 15, (S)-2-amino-6-borono-2-((1s,3R)-3-((2,3-dihydrobenzofuran-5-yl)methylamino)cyclobutyl)hexanoic acid] | 26 to 100 | 26 to 100 | 1000 to 25000
NC(CCCCB(O)O)(C(=O)O)[C@H]1C[C@@H](NCc2ccc(-c3ccc(Cl)c(Cl)c3)cc2)C1 (stereo partly drawn) [Example 16, (S)-2-amino-6-borono-2-((1s,3R)-3-((3′,4′-dichlorobiphenyl-4-yl)methylamino)cyclobutyl)hexanoic acid] | 0.1 to 25 | 0.1 to 25 | 1000 to 25000
NC(CCCCB(O)O)(C(=O)O)[C@H]1C[C@@H](NCc2ccc(-c3ccc(Cl)cc3)cc2)C1 (stereo partly drawn) [Example 17, (S)-2-amino-6-borono-2-((1s,3R)-3-((4′-chlorobiphenyl-4-yl)methylamino)cyclobutyl)hexanoic acid] | 0.1 to 25 | 0.1 to 25 | 1000 to 25000
NC(CCCCB(O)O)(C(=O)O)[C@H]1C[C@@H](NCc2ccc(-c3ccc(C(F)(F)F)cc3)cc2)C1 (stereo partly drawn) [Example 18, (S)-2-amino-6-borono-2-((1s,3R)-3-((4′-(trifluoromethyl)biphenyl-4-yl)methylamino)cyclobutyl)hexanoic acid] | 0.1 to 25 | 0.1 to 25 | 1000 to 25000
NC(CCCCB(O)O)(C(=O)O)[C@H]1C[C@@H](NCc2ccc(-c3ccc(F)cc3)cc2)C1 (stereo partly drawn) [Example 19, (S)-2-amino-6-borono-2-((1s,3R)-3-((4′-fluorobiphenyl-4-yl)methylamino)cyclobutyl)hexanoic acid] | 26 to 100 | 0.1 to 25 | 26000 to 100000
NC(CCCCB(O)O)(C(=O)O)[C@H]1C[C@@H](NCc2ccc(Oc3ccc(Cl)cc3)cc2)C1 (stereo partly drawn) [Example 21, (S)-2-amino-6-borono-2-((1s,3R)-3-(4-(4-chlorophenoxy)benzylamino)cyclobutyl)hexanoic acid] | 0.1 to 25 | 0.1 to 25 | 26000 to 100000
